# pIC50: −log10 of the molar value.
# How the values were obtained:
# [1] = molecular target: T1, Sodium-dependent dopamine transporter (Rattus norvegicus, UniProt P23977); assay: Inhibition of [3H]dopamine uptake at dopamine transporter.
# [2] = molecular target: T1, Sodium-dependent dopamine transporter
# [3] = molecular target: T1, Sodium-dependent dopamine transporter; remark: listed apart in the source
# [4] = molecular target: T1, Sodium-dependent dopamine transporter; assay: Inhibition of [3H]BTCP binding to the dopamine transporter.
# [5] = molecular target: T1, Sodium-dependent dopamine transporter; assay: Inhibition of [3H]-dopamine uptake at dopamine transporter.
# [6] = molecular target: T1, Sodium-dependent dopamine transporter; assay: Inhibition of [3H]mazindol binding to the dopamine transporter.
# [7] = molecular target: T1, Sodium-dependent dopamine transporter; assay: Potency for the inhibition of [3H]WIN-35428 binding to the dopamine transporter
# [8] = molecular target: T1, Sodium-dependent dopamine transporter; assay: Inhibition of [3H]WIN-35428 binding to the dopamine transporter
# [9] = molecular target: T1, Sodium-dependent dopamine transporter; assay: Inhibition of [3H]cocaine binding to the dopamine transporter.
# [10] = molecular target: T1, Sodium-dependent dopamine transporter; assay: Inhibition of [3H]GBR-12935 binding to the dopamine transporter.
# [11] = molecular target: T1, Sodium-dependent dopamine transporter; assay: Inhibition of dopamine uptake at dopamine transporter.
# [12] = molecular target: T1, Sodium-dependent dopamine transporter; assay: Inhibition of [3H]dopamine uptake at the dopamine transporter.
# [13] = molecular target: T1, Sodium-dependent dopamine transporter; remark: listed apart in the source
# T1 sequence (P23977 whole entry): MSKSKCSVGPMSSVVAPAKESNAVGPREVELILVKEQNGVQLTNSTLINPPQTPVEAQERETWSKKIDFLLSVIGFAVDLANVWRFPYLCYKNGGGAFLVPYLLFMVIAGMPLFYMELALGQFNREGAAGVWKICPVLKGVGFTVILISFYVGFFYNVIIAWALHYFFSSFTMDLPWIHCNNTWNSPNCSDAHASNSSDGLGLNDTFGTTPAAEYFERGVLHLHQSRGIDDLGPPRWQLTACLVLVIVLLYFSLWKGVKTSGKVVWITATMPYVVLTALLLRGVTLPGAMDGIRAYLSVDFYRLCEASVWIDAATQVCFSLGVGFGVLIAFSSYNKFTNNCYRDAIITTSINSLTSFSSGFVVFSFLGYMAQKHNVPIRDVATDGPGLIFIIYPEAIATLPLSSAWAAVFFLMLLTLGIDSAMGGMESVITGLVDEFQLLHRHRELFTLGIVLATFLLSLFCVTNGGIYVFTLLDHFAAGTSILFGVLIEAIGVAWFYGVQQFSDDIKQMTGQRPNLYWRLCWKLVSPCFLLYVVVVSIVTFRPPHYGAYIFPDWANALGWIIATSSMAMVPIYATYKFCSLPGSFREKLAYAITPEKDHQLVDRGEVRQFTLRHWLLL
smiles,measurement,setting,value
COC(=O)C1C2CC[C@H](C[C@@H]1OC(=O)Nc1cccc([N+](=O)[O-])c1)N2C (stereo partly specified),pIC50,[1],6.75
same,pIC50,[2],6.48
same,pIC50,[3],7.43
COC(=O)C1C2CC[C@H](C[C@@H]1OC(=O)c1ccccc1)[N+]2(C)C (stereo partly specified),pIC50,[4],8.10
same,pIC50,[5],7.85
same,pIC50,[6],4.70
same,pIC50,[7],4.97
COC(=O)C1C2CC[C@H](C[C@@H]1OC(=O)c1ccc(N=[N+]=[N-])c(I)c1)N2C (stereo partly specified),pIC50,[1],6.10
CN1C2CC[C@@H]1C[C@H](OC(=O)c1ccccc1)C2C(=O)OCCc1ccc(N)cc1 (stereo partly specified),pIC50,[8],7.15
COC(=O)C1C2CC[C@H](C[C@@H]1OC(=O)c1ccc(N)cc1)N2C (stereo partly specified),pIC50,[6],5.52
same,pIC50,[7],5.91
CN1C2CC[C@@H]1C[C@H](O)C2C(=O)O (stereo partly specified),pIC50,[2],8.33
same,pIC50,[6],< 3.00
CN1C2CC[C@@H]1C[C@H](OC(=O)c1ccc(N)cc1)C2C(=O)O (stereo partly specified),pIC50,[5],7.46
same,pIC50,[2],8.05
same,pIC50,[6],5.35
same,pIC50,[7],5.08
COC(=O)C1C2CC[C@H](C[C@@H]1c1ccc(F)cc1)N2 (stereo partly specified),pIC50,[3],7.44
COC(=O)C1C2CC[C@H](C[C@@H]1OC(=O)c1ccccc1)N2Cc1ccccc1 (stereo partly specified),pIC50,[4],6.85
same,pIC50,[8],6.18
same,pIC50,[9],7.70
same,pIC50,[1],7.11
same,pIC50,[10],6.60
COC(=O)[C@@H]1C2CC[C@H](C[C@@H]1c1ccccc1)N2C,pIC50,[7],6.25
CN1[C@@H]2CC[C@H]1C[C@H](OC(=O)c1ccccc1)C2,pIC50,[11],3.73
same,pIC50,[9],5.48
same,pIC50,[3],4.64
same,pIC50,[6],4.82
same,pIC50,[12],3.96
COC(=O)[C@@H]1C2CC[C@H](C[C@@H]1c1ccc(N=[N+]=[N-])cc1)N2C,pIC50,[11],6.70
same,pIC50,[8],8.70
COC(=O)C1C2CC[C@H](C[C@H]1c1ccc(C)cc1)N2C (stereo partly specified),pIC50,[1],6.96
same,pIC50,[6],8.30
same,pIC50,[7],8.70
c1ccc2sc(C3(N4CCCCC4)CCCCC3)cc2c1,pIC50,[4],8.30
same,pIC50,[2],7.70
same,pIC50,[3],7.38
same,pIC50,[13],8.70
COC(=O)C1C2CC[C@H](C[C@@H]1c1ccc(I)cc1)N2C (stereo partly specified),pIC50,[7],9.00
CC[C@H](C)[C@H](NC(=O)[C@@H](NC[C@H](CC(C)C)NC(=O)[C@H](Cc1c[nH]cn1)NC(=O)[C@H](Cc1ccccc1)NC(=O)[C@]1(C)CCCN1C(=O)OC(C)(C)C)C(C)C)C(=O)NCc1ccccn1,pIC50,[5],7.54
same,pIC50,[1],5.61
same,pIC50,[2],7.03
same,pIC50,[6],6.75
COC(=O)C1C2CC[C@H](C[C@@H]1OC(=O)c1cccc(N=C=S)c1)N2C (stereo partly specified),pIC50,[2],7.14
same,pIC50,[7],5.84
O=C(O[C@H]1C[C@H]2CCC(N2)C1C(=O)O)c1ccccc1 (stereo partly specified),pIC50,[9],4.11
same,pIC50,[6],3.47
COC(=O)C1C2CC[C@H](C[C@@H]1c1ccccc1)N2 (stereo partly specified),pIC50,[3],7.07
same,pIC50,[6],6.44
CN1C2CC[C@@H]1C[C@H](c1ccc(Cl)cc1)C2C(=O)OCCc1ccc(N=[N+]=[N-])c(I)c1 (stereo partly specified),pIC50,[1],5.85
CNC(=O)C1C2CC[C@H](C[C@@H]1OC(=O)c1ccccc1)N2C (stereo partly specified),pIC50,[5],5.70
C=CCN1C2CC[C@@H]1C[C@H](OC(=O)c1ccccc1)C2C(=O)OC (stereo partly specified),pIC50,[1],5.60
same,pIC50,[3],5.99
COC(=O)C1C2CC[C@H](C[C@@H]1OC(=O)c1ccc(N=C=S)cc1)N2C (stereo partly specified),pIC50,[1],5.56
same,pIC50,[2],6.56
same,pIC50,[7],5.98
COC(=O)[C@@H]1C2CC[C@H](C[C@@H]1c1ccc(N)cc1)N2C,pIC50,[11],6.25
same,pIC50,[9],6.72
COC(=O)C1C2CC[C@H](C[C@@H]1c1ccc(Cl)cc1)N2C (stereo partly specified),pIC50,[11],7.52
same,pIC50,[8],9.00
same,pIC50,[6],8.70
COC(=O)C1C2CC[C@H](C[C@@H]1O)N2C (stereo in doubt; 18),pIC50,[6],4.21
COC(=O)C1C2CC[C@H](C[C@@H]1OC(=O)c1ccccc1)N2 (stereo in doubt; 22),pIC50,[2],7.04
same,pIC50,[3],6.38
same,pIC50,[6],5.92
same,pIC50,[7],6.52
COC(=O)C1C2CC[C@H](C[C@@H]1OC(=O)c1ccccc1)N2 (stereo in doubt; 23),pIC50,[1],5.60
same,pIC50,[3],6.57
COC(=O)C1C2CC[C@H](C[C@@H]1O)N2C (stereo in doubt; 31),pIC50,[6],4.06
COC(=O)[C@@H]1C2CC[C@H](C[C@@H]1c1ccccc1)N2C (stereo in doubt; 47),pIC50,[1],6.02
same,pIC50,[3],7.36
same,pIC50,[6],6.92
COC(=O)[C@@H]1C2CC[C@H](C[C@@H]1c1ccccc1)N2C (stereo in doubt; 49),pIC50,[1],5.88
same,pIC50,[3],7.66
COC(=O)[C@@H]1C2CC[C@H](C[C@@H]1c1ccccc1)N2C (stereo in doubt; 50),pIC50,[1],3.70
same,pIC50,[3],4.49
COC(=O)[C@@H]1C2CC[C@H](C[C@@H]1c1ccccc1)N2C (stereo in doubt; 68),pIC50,[8],5.54
same,pIC50,[9],5.59
same,pIC50,[6],3.41
COC(=O)[C@@H]1C2CC[C@H](C[C@@H]1c1ccccc1)N2C (stereo in doubt; 70),pIC50,[11],5.68
same,pIC50,[9],5.92

# From ChEMBL document CHEMBL1125413 (J Med Chem, 1992)
